US12383653B2, “Neutral multidomain peptide hydrogels and uses thereof” (William Marsh Rice University, priority 2018, dated 2025)
Entries after “also recorded” stand apart in the source; their conditions may differ. Where a SMILES comes first, the peptide text is derived from it. [ ]: non-standard residue; d: D form. Hyp = O=C(O)[C@@H]1C[C@@H](O)CN1

What was measured:
[1] = Hydrogel formation (inverted-vial test, pH, ionic strength, buffers); type: physicochemical
Experimental: Hydrogel Formation. Peptide solutions of O5 were prepared at 1% by weight (4.2 mM) in 149 mM sucrose and 0.5×HBSS. This buffer system was chosen to be consistent with prior MDP experiments and find optimum gelling conditions for future in vivo and in vitro work. Peptide solutions were sonicated using a Microson Ultrasonic Cell Disruptor with a 2 mm microprobe. The instrument frequency was 22.5 kHz and a power output up to 10 watts (RMS) was used. Solutions were sonicated at room temperature for 1 or 10 cycles, where each cycle consisted of 10 pulses and 1 min relaxation time between cycles. For the study of hydrogelation of O5, K2 and E2 at different pH values and ionic strength, 1% by weight peptide solutions were prepared in deionized water, PBS, or HBSS. pH was adjusted using HCl or NaOH 0.1 M solutions.

[2] = Oscillatory rheology of 1 wt.% hydrogel; type: physicochemical
Experimental: Oscillatory Rheology. Rheological properties of O5 hydrogel were analyzed by oscillatory rheology using a TA Instruments AR-G2 rheometer (TA Instruments, New Castle, DE). Hydrogels were prepared 24 h before the analysis as described above. 150 μL of 1% by weight peptide hydrogels were transferred from a cut syringe onto the rheometer stage equipped with a 12 mm stainless-steel parallel plate set to a 1000 μm gap height. The following program was used to monitor the storage modulus (G′) and loss modulus (G″) under various conditions as has been previously published (Li et al., 2017). Strain sweep analysis was performed using an applied strain of 0.01%-200% at a frequency of 1 rad/s. Frequency sweep analysis was performed under 1% strain at 0.1-100 rad/s. Shear recovery analysis was performed by subjecting the peptide sample to 1% strain for 20 min, then 200% for 1 min, and finally 1% for 20 min, allowing for disruption of the hydrogel and monitoring of G′ and G″ recovery.

[3] = Secondary structure estimation from circular dichroism in TFE, least square linear method; type: physicochemical; conditions: TFE at 25° C., 1 wt.%
Experimental: Circular Dichroism (CD) spectroscopy. For secondary structure characterization, peptide solutions of 1% by weight (molar concentration is included in Table 2) were prepared in 2,2,2-trifluoroethanol (TFE, Sigma Aldrich, St. Louis, MO). CD spectra acquisition was performed in a CD Jasco J-810 spectropolarimeter (Jasco Inc., Easton, MD) using a 0.01 mm cuvette. Data were collected at room temperature from 180 to 250 nm at a speed of 50 nm/min, with a 0.1 nm data pitch and the spectra were averaged over 5 scans. To study the hydrogelation of O5, 1% by weight peptide solutions were made in 149 mM sucrose solution in 0.5× Hank's Balanced Salt Solution (HBSS, Life Technologies) and analyzed as previously described.
To estimate the secondary structure of O peptide series, data fitting using the least square linear method was performed in MATLAB (Mathworks, Natick, MA). (Hyp)6, O1(SL)6O1 and K2(SL)6K2 were used as basis spectra for polyproline type II, β-sheet and α-helix, respectively (FIG. 7).

[4] = 3D culture cytocompatibility, Calcein AM / Ethidium homodimer-1 viability and cell morphology; type: cell-based; conditions: mouse; day 1 after encapsulation, 1 wt.% hydrogel; read-out: percentage of viable cells
Experimental: (§1) Cytocompatibility and cell viability studies. All cell culture materials, not otherwise specified, were purchased from Gibco, Life Technologies. NIH-3T3 fibroblast cells were cultured in Dulbecco's Modified Eagle Medium (DMEM) supplemented with 10% Fetal Bovine Serum (FBS), 2% L-glutamine (200 mM), 1% sodium pyruvate (100 mM), and 1% pen-strep solution (5000 units/mL of penicillin and 5 mg/mL of streptomycin, Sigma-Aldrich, St. Louis, MO). Cells were maintained at 37° C. and 5% CO2 with humidity and split when reaching 80%-90% confluency by treatment with 0.25% trypsin-EDTA and neutralization with complete media. Cells were centrifuged for 6 min at 1600 rpm, then the cell pellet was dispersed in HBSS, counted and adjusted to the required concentration. 3D cell culture in K2 hydrogel was achieved by mixing a 2% by weight peptide stock solution in 298 mM sucrose with a cell suspension of 2×10^6 cells/mL in HBSS. The final concentration was 1% by weight K2 hydrogel in 149 mM sucrose and 0.5×HBSS with 1×10^6 cells/mL. For O5 peptide, hydrogel was prepared by sonication using only 90% of the required 149 mM sucrose-0.5×HBSS to obtain a 1% by weight concentration, the remaining 10% was added as a cell suspension, and mixed by pipetting into the gel to obtain a final concentration of 1×10^6 cells/mL evenly distributed though the volume of the hydrogel. 70 μL of seeded hydrogels were cultured in a Lab-Tek 16-well glass chamber ([…], Thermo Fisher, Rochester, NY) with 200 μL of medium and fed every 2 days by replacing 100 μL with fresh media. Cell viability was analyzed using a live/dead viability kit (Invitrogen, Thermo Fisher, Carlsbad, CA). At specific time points, the medium was removed, and gels were rinsed with 1×PBS, then 100 μL of staining solution containing 2 μM Calcein AM and 4 μM Ethidium homodimer-1 in DPBS were added. Cells were incubated from 15 to 30 min and imaged using a Nikon A1 Rsi fluorescent confocal microscope (Nikon Instruments, Tokyo, Japan). Three z-stack images of 100 μm deep per sample were taken at 20× using a 488 nm green channel and 561 nm red channel lasers. Images were processed with NIS Element and live/dead cell counting was performed on Imaris 3D/4D Image Processing software (Bitplane, Concord, MA).
(§2) To evaluate the cell morphology, hydrogels were rinsed with PBS and fixed with 10% buffered formalin for 30 min Cells were treated with 0.5% Triton X for 10 min and 100 mM glycine for 10 min, followed by 10% Bovine Serum Albumin (BSA) in HBSS block solution. Then cells were stained for filamentous actin with Alexa Fluor® 488-Phalloidin and for the nuclei with ProLong® Gold Antifade DAPI mounting media. Cell in the hydrogels were analyzed by confocal microscopy using a 40× water objective and processed as described.

[5] = tested on: NIH-3T3 fibroblasts; assay: as above; type: cell-based
Experimental: as §1, §2

[6] = In vivo host response, subcutaneous injection model; set-up: species or system mice
Experimental: In vivo compatibility studies. All experimental procedures were approved by the Rice University Institutional Animal Care and Use Committee (IACUC) and performed according to the Animal Welfare Act and NIH guidelines. Female C57BL/6 mice from 8 to 12 weeks were purchased from Charles River (Wilmington, MA). Mice were injected with 4 implants of 100 μL 1% by weight O5 hydrogel in the dorsal subcutaneous space using a 26-gauge needle. At days 3, 7, and 14 mice were euthanized, and implants were extracted, fixed with 10% neutral buffered formalin and processed into paraffin blocks. Tissue was sectioned at 5 μm thickness and stained with hematoxylin and eosin, and Masson's trichome under standard procedures. For fluorescent immunostaining, tissue sections were deparaffinized, hydrated and antigens were retrieved by boiling in sodium citrate buffer (10 mM sodium citrate, 0.05% Tween 20 at pH 6.0). Tissues were permeabilized with 0.5% Triton X and blocked with 1% BSA in PBS for 30 min. Tissues were incubated overnight at 4° C. with rat anti-Mouse F4/80 monoclonal antibody (1:50, clone BM8, eBioscience™, Cat #14-4801-82). Then, samples were incubated for 1 hour with goat anti-rat AlexaFluor® 568 (1:500, Invitrogen), followed by mounting with ProLong® Gold Antifade reagent with DAPI. Tissue slides were analyzed by confocal fluorescent microscopy.

CC(=O)N1C[C@H](O)C[C@H]1C(=O)N1C[C@H](O)C[C@H]1C(=O)N1C[C@H](O)C[C@H]1C(=O)N1C[C@H](O)C[C@H]1C(=O)N1C[C@H](O)C[C@H]1C(=O)N[C@@H](CO)C(=O)N[C@@H](CC(C)C)C(=O)N[C@@H](CO)C(=O)N[C@@H](CC(C)C)C(=O)N[C@@H](CO)C(=O)N[C@@H](CC(C)C)C(=O)N[C@@H](CO)C(=O)N[C@@H](CC(C)C)C(=O)N[C@@H](CO)C(=O)N[C@@H](CC(C)C)C(=O)N[C@@H](CO)C(=O)N[C@@H](CC(C)C)C(=O)N1C[C@H](O)C[C@H]1C(=O)N1C[C@H](O)C[C@H]1C(=O)N1C[C@H](O)C[C@H]1C(=O)N1C[C@H](O)C[C@H]1C(=O)N1C[C@H](O)C[C@H]1C(N)=O [Peptide O5, Ac-OOOOOSLSLSLSLSLSLOOOOO-CONH2] (Ac-[Hyp][Hyp][Hyp][Hyp][Hyp]SLSLSLSLSLSL[Hyp][Hyp][Hyp][Hyp][Hyp]-NH2)
state of the peptide at 10 mg/mL ([1]; 10 mg/mL): forms a hydrogel
hydrogelation in cell culture media ([1]; 1% by weight in 149 mM sucrose and 0.5×HBSS, ultrasonication): forms a self-supportive hydrogel
hydrogel formation at acidic, neutral and basic pH ([1]; 1% by weight, pH adjusted with HCl or NaOH, inverted-vial test / CD): remains a hydrogel at acidic, neutral and basic pH; also recorded: remains a hydrogel at all pH
pH range over which peptide remains a hydrogel ([1]; also in deionized water, PBS and HBSS): 3-11
loss modulus (G″) [2]: 1.7±0.5 Pa
storage modulus (G′) [2]: 23.3±8.7 Pa
% PPII [3]: 50%
% α-helix [3]: 40.5%
% β-sheet [3]: 9.5%
Predominant Structure [3]: PPII
viability at 24 h, 1 % by weight [4]: ~70%
cell spreading and adhesion to the material ([5]; 5 days encapsulated, actin staining): do not spread and adhere to the material
cell recovery after extraction from the hydrogel ([5]; after 5 days of culture): recover, grow, and proliferate
percentage of viable cells ([5]; day 3 compared with day 1): relatively unchanged
cytotoxicity / viability over the culture ([5]; days 1 to 5, 1 wt.% hydrogel): good initial viability, which remains constant throughout the experiment
cell proliferation / viable cell density in the gel ([5]; up to day 5): not observed to proliferate
inflammatory response ([6]; compared to K2 hydrogel): weaker inflammatory response
implant degradation ([6]; day 14): almost completely degraded
collagen deposition / remodeling ([6]; day 14, Masson's trichrome): natural collagen is observed
fibrous encapsulation ([6]; subcutaneous implant, in contrast with PEG): not fibrously encapsulated
